“Also recorded” adds a separate entry of the source.
Legend:
[1] = Stability of crystalline forms held at room temperature, purity by HPLC; format: physicochemical; conditions: for Stability at room temperature: over twenty days at room temperature; for Stability at room temperature / Purity: HPLC
Excerpt: The stabilities of some of the crystalline forms have been tested under various conditions. HPLC was used to determine the degree of degradation of topotecan hydrochloride over time.
The samples with different forms were held at room temperature for a specific period. We tested the purities of these samples by HPLC and observed the changes of their purities.
The changes to the purities of Forms D to I are summarized as follows: […]

[2] = Experiment 2: long-time stirring in ethyl acetate at room temperature, resulting crystalline form; format: physicochemical
Method: Topotecan hydrochloride (4.0 g Form A or Form D) is stirred in ethyl acetate (40 mL) for a long time (40, 80, or 200 hours) at room temperature. The solids are filtered and washed with cool ethyl acetate. Dry under vacuum at room temperature.

[3] = room temperature, duration 0 hour, hydrochloride
[4] = room temperature, duration 3 days, hydrochloride
[5] = room temperature, duration 7 days, hydrochloride
[6] = room temperature, duration 20 days, hydrochloride
[7] = room temperature, duration 32 days, hydrochloride
[8] = room temperature, duration 36 days, hydrochloride

Purity [1, 3] [%] | Purity [1, 4] [%] | Purity [1, 5] [%] | Purity [1, 6] [%] | SMILES | also measured
99.70 | 99.65 | 99.56 | 99.56 | CC[C@@]1(O)C(=O)OCc2c1cc1n(c2=O)Cc2cc3c(CN(C)C)c(O)ccc3nc2-1.Cl [Form I, topotecan hydrochloride] | Stability at room temperature [1]: substantially stable
99.11 | 99.06 | 99.00 | 98.88 | CC[C@@]1(O)C(=O)OCc2c1cc1n(c2=O)Cc2cc3c(CN(C)C)c(O)ccc3nc2-1.Cl [Form G, topotecan hydrochloride] | Purity [1, 7]: 99.06%
99.92 | 99.90 | 99.92 | 99.89 | CC[C@@]1(O)C(=O)OCc2c1cc1n(c2=O)Cc2cc3c(CN(C)C)c(O)ccc3nc2-1.Cl [Form H, topotecan hydrochloride] | Stability at room temperature [1]: substantially stable

More lines, now with the values behind:

SMILES | Purity [1, 3] [%] | Purity [1, 4] [%] | Purity [1, 5] [%] | Purity [1, 6] [%] | also measured
CC[C@@]1(O)C(=O)OCc2c1cc1n(c2=O)Cc2cc3c(CN(C)C)c(O)ccc3nc2-1.Cl [Form D, topotecan hydrochloride] | 99.32 | 99.21 | 99.17 | 99.08 | Stability at room temperature compared with other Forms ([1]; room temperature): better than other Forms; Purity [1, 8]: 99.43%; Stability on long time stirring compared with Form A ([2]; long time stirring in ethyl acetate): more stable than Form A; Crystalline form after stirring ([2]; stirred in ethyl acetate 40 h at room temperature, hydrochloride): Form D → D; Crystalline form after stirring ([2]; stirred in ethyl acetate 80 h at room temperature, hydrochloride): Form D → D; Crystalline form after stirring ([2]; stirred in ethyl acetate 200 h at room temperature, hydrochloride): stable; also recorded: Form D → D
CC[C@@]1(O)C(=O)OCc2c1cc1n(c2=O)Cc2cc3c(CN(C)C)c(O)ccc3nc2-1.Cl [Form F, topotecan hydrochloride] | 99.94 | 99.92 | – | – | Purity ([1]; room temperature, duration 16 days): 99.91%; Purity [1, 7]: 99.91%
CC[C@@]1(O)C(=O)OCc2c1cc1n(c2=O)Cc2cc3c(CN(C)C)c(O)ccc3nc2-1.Cl [Form E, topotecan hydrochloride] | 98.99 | 99.27 | 99.31 | 99.29 | Purity [1, 8]: 99.30%
CC[C@@]1(O)C(=O)OCc2c1cc1n(c2=O)Cc2cc3c(CN(C)C)c(O)ccc3nc2-1.Cl [Form A, topotecan monohydrochloride pentahydrate, reference compound] | – | – | – | – | Crystalline form after stirring ([2]; stirred in ethyl acetate 40 h at room temperature, listed as From A): From A → A; Crystalline form after stirring ([2]; stirred in ethyl acetate 80 h at room temperature): transform to Form E; also recorded: Form A → E; Crystalline form after stirring ([2]; stirred in ethyl acetate 200 h at room temperature): Form A → E

From patent US8013158B2, “Crystalline forms of topotecan hydrochloride and processes for making the same” (Scinopharm Taiwan Ltd., priority 2007, dated 2011)
